Results published in patent publication US20230257372A1 (CHONG KUN DANG PHARMACEUTICAL CORP., priority 2020, published 2023).
Read-outs that look alike come from different tables or passages of the source.

How the values were obtained:
human recombinant HDAC1 = biological target: T1, human recombinant HDAC1 (Homo sapiens, UniProt Q13547); assay: HDAC1 enzyme activity inhibition (HDAC Fluorimetric Drug Discovery Kit); format: biochemical
T1 construct: purchased Enzo Life Science, Inc. BML-SE456
Method in brief: (§1)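 Enzyme at 0.3 µg per well was reacted with 10 μM fluorogenic substrate in presence of 5-fold diluted compound, 30° C for 60 min.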

human recombinant HDAC6 = biological target: T2, human recombinant HDAC6 (Homo sapiens, UniProt Q9UBN7); assay: HDAC6 enzyme activity inhibition (HDAC Fluorimetric Drug Discovery Kit); format: biochemical
T2 construct: purchased Calbiochem Inc. 382180
T2 sequence (Q9UBN7 1-1215): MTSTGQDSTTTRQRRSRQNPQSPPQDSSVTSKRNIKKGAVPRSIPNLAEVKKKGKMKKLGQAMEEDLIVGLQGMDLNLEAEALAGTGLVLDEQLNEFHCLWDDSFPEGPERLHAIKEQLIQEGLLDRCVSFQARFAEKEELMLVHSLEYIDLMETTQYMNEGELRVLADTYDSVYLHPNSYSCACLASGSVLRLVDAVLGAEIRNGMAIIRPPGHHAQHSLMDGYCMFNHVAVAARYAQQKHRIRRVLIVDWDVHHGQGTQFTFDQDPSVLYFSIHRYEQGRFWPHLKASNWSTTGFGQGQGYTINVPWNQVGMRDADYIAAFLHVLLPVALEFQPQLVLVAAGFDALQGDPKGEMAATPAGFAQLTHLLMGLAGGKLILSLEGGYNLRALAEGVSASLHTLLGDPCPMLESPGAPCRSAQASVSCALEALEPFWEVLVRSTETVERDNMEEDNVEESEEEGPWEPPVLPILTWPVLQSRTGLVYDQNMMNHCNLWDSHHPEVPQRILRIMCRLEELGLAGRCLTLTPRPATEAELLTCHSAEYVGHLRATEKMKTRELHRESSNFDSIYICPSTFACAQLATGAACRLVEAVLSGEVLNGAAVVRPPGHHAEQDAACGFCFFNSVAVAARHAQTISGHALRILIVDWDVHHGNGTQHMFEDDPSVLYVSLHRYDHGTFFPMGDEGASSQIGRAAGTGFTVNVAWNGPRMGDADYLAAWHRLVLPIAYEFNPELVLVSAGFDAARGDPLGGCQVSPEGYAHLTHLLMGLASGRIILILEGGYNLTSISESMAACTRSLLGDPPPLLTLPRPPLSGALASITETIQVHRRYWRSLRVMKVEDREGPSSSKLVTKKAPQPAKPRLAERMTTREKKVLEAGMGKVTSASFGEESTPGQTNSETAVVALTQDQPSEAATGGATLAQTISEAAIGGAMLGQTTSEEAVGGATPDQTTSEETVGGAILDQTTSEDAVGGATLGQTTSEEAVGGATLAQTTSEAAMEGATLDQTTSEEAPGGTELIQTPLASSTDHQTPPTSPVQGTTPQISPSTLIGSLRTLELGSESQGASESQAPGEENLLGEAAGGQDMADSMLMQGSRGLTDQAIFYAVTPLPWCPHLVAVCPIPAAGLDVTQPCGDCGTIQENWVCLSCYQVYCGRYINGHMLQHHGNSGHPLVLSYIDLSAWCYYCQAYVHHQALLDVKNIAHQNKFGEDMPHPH
Method in brief: as §1

[1] = human recombinant HDAC1, Fluor de Lys substrate, 30° C. 60 minutes, read-out: HDAC1
[2] = human recombinant HDAC6, same protocol as HDAC1
[3] = human recombinant HDAC1, IC50 calculated with GraphPad Prism, read-out: HDAC1
[4] = human recombinant HDAC6, IC50 calculated with GraphPad Prism

T1 sequence (Q13547 whole entry): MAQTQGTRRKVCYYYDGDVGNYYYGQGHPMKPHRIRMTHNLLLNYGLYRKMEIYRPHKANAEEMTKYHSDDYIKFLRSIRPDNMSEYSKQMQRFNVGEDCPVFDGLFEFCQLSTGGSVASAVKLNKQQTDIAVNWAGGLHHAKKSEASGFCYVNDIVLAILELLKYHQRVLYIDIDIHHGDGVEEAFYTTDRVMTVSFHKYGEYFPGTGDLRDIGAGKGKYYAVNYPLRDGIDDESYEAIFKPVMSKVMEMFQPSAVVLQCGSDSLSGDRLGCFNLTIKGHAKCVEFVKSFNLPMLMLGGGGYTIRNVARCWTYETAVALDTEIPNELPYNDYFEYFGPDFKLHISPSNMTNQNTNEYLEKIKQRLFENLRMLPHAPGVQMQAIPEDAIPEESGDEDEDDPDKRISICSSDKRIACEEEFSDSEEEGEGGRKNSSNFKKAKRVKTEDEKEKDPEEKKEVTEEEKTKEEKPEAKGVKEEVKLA

Structure (SMILES)	IC50 (human recombinant HDAC1; [1]) [nM]	HDAC6 selectivity (fold) (human recombinant HDAC6; HDAC6 over HDAC1)	IC50 (human recombinant HDAC6; [2]) [nM]	IC50 (human recombinant HDAC1; [3]) [nM]	HDAC6 selectivity (fold) (human recombinant HDAC6; HDAC1 IC50 / HDAC6 IC50)	IC50 (human recombinant HDAC6; [4]) [nM]	IC50 (human recombinant HDAC1) [nM]
CC(C)N1CCC(c2cccc(-c3cn(Cc4ccc(-c5nnc(C(F)F)o5)cc4F)nn3)c2)CC1 [Compound 4292, 2-(difluoromethyl)-5-(3-fluoro-4-((4-(3-(1-isopropylpiperidin-4-yl)phenyl)-1H-1,2,3-triazol-1-yl)methyl)phenyl)-1,3,4-oxadiazole]				> 50000	967	51.7	
Fc1cc(-c2nnc(C(F)F)o2)ccc1Cn1cc(-c2ccc3c(c2)CCN(C2COC2)C3)nn1 [Compound 4362, 2-(difluoromethyl)-5-(3-fluoro-4-((4-(2-(oxetan-3-yl)-1,2,3,4-tetrahydroisoquinolin-6-yl)-1H-1,2,3-triazol-1-yl)methyl)phenyl)-1,3,4-oxadiazole]				> 50000	762	65.6	
CCN1CCc2ccc(-c3cn(Cc4ccc(-c5nnc(C(F)F)o5)cc4F)nn3)cc2C1 [Compound 4364, 2-(difluoromethyl)-5-(4-((4-(2-ethyl-1,2,3,4-tetrahydroisoquinolin-7-yl)-1H-1,2,3-triazol-1-yl)methyl)-3-fluorophenyl)-1,3,4-oxadiazole]				> 50000	1160	43.1	
CN(C)CCC(=O)Nc1cccc(-c2cn(Cc3ccc(-c4nnc(C(F)F)o4)cc3F)nn2)c1 [Compound 4335]				> 50000	797	62.7	
Fc1cc(-c2nnc(C(F)F)o2)ccc1Cn1cc(C2(F)COC2)nn1 [Compound 4282, 2-(difluoromethyl)-5-(3-fluoro-4-((4-(3-fluorooxetan-3-yl)-1H-1,2,3-triazol-1-yl)methyl)phenyl)-1,3,4-oxadiazole]				> 50000	209	238	
COC(=O)N1CCC(c2cn(Cc3ccc(-c4nnc(C(F)F)o4)cn3)nn2)CC1 [Compound 3891, Methyl4-(1-((5-(5-(difluoromethyl)-1,3,4-oxadiazol-2-yl)pyridin-2-yl)methyl)-1H-1,2,3-triazol-4-yl)piperidin-1-carboxylate]				> 50000	287	174	
CN1CCc2ccc(-c3cn(Cc4ccc(-c5nnc(C(F)F)o5)cn4)nn3)cc2C1 [Compound 4209, 2-(difluoromethyl)-5-(6-((4-(2-methyl-1,2,3,4-tetrahydroisoquinolin-7-yl)-1H-1,2,3-triazol-1-yl)methyl)pyridin-3-yl)-1,3,4-oxadiazole]				> 50000	1298	38.5	
CCN1CC(N2CCc3cc(-c4cn(Cc5ccc(-c6nnc(C(F)F)o6)cc5F)nn4)ccc3C2)C1 [Compound 4392, 2-(difluoromethyl)-5-(4-((4-(2-(1-ethylazetidin-3-yl)-1,2,3,4-tetrahydroisoquinolin-6-yl)-1H-1,2,3-triazol-1-yl)methyl)-3-fluorophenyl)-1,3,4-oxadiazole]				> 50000	1262	39.6	

The remaining lines, values ahead:

IC50 (human recombinant HDAC1; [1]) [nM]	HDAC6 selectivity (fold) (human recombinant HDAC6; HDAC6 over HDAC1)	IC50 (human recombinant HDAC6; [2]) [nM]	IC50 (human recombinant HDAC1; [3]) [nM]	HDAC6 selectivity (fold) (human recombinant HDAC6; HDAC1 IC50 / HDAC6 IC50)	IC50 (human recombinant HDAC6; [4]) [nM]	IC50 (human recombinant HDAC1) [nM]	Structure (SMILES)
> 50000	4545	13.1					FC(F)c1nnc(-c2ccc(Cn3cc(-c4ccc(CN5CCC5)cc4)nn3)cc2)o1 [Compound 4548, 2-(4-((4-(4-(azetidin-1-ylmethyl)phenyl)-1H-1,2,3-triazol-1-yl)methyl)phenyl)-5-(difluoromethyl)-1,3,4-oxadiazole]
> 50000	640	78.1					Fc1cc(-c2nnc(C(F)F)o2)cnc1Cn1cc(-c2ccc3c(c2)CN(C2CCC2)CC3)nn1 [Compound 19004]
> 50000	728	68.6					CN(C)Cc1cc(Cl)cc(-c2cn(Cc3ncc(-c4nnc(C(F)F)o4)cc3F)nn2)c1 [Compound 19090, 1-(3-chloro-5-(1-((5-(5-(difluoromethyl)-1,3,4-oxadiazol-2-yl)-3-fluoropyridin-2-yl)methyl)-1H-1,2,3-triazol-4-yl)phenyl)-N,N-dimethylmethanamine]
> 50000	531	94.1					Fc1cc(-c2nnc(C(F)F)o2)ccc1Cn1cc(-c2ccc(CN3CCC(F)(F)C3)nc2)nn1 [Compound 17775, 2-(difluoromethyl)-5-(4-((4-(6-((3,3-difluoropyrrolidin-1-yl)methyl)pyridin-3-yl)-1H-1,2,3-triazol-1-yl)methyl)-3-fluorophenyl)-1,3,4-oxadiazole]
	502	99.5				> 50000	Fc1cc(-c2nnc(C(F)F)o2)ccc1Cn1cc(-c2ccc(N3CCN(C4CCOCC4)CC3)c(F)c2)nn1 [Compound 18327, 2-(difluoromethyl)-5-(3-fluoro-4-((4-(3-fluoro-4-(4-(tetrahydro-2H-pyran-4-yl)piperazin-1-yl)phenyl)-1H-1,2,3-triazol-1-yl)methyl)phenyl)-1,3,4-oxadiazole]
			> 50000	892	56		CN1CCN(Cc2cccc(-c3cn(Cc4ccc(-c5nnc(C(F)F)o5)cc4F)nn3)c2)CC1 [Compound 4406, 2-(difluoromethyl)-5-(3-fluoro-4-((4-(3-((4-methylpiperazin-1-yl)methyl)phenyl)-1H-1,2,3-triazol-1-yl)methyl)phenyl)-1,3,4-oxadiazole]
> 50000	167	299					CC(C)(C)OC(=O)N1CC(N2CCC(c3cccc(-c4cn(Cc5ncc(-c6nnc(C(F)F)o6)cc5F)nn4)c3)CC2)C1 [Compound 18872, tert-butyl 3-(4-(3-(1-((5-(5-(difluoromethyl)-1,3,4-oxadiazol-2-yl)-3-fluoropyridin-2-yl)methyl)-1H-1,2,3-triazol-4-yl)phenyl)piperidin-1-yl)azetidin-1-carboxylate]
> 50000	680	73.5					CCN1Cc2ccc(-c3cn(Cc4ccc(-c5nnc(C(F)F)o5)cc4F)nn3)cc2C1 [Compound 4516, 2-(difluoromethyl)-5-(4-((4-(2-ethylisoindolin-5-yl)-1H-1,2,3-triazol-1-yl)methyl)-3-fluorophenyl)-1,3,4-oxadiazole]
> 50000	365	137					CC(C)N1CCc2cc(-c3cn(Cc4ccc(-c5nnc(C(F)F)o5)cc4F)nn3)sc2C1 [Compound 4501]
			> 50000	2183	22.9		C[C@@H]1CN(c2cccc(-c3cn(Cc4ccc(-c5nnc(C(F)F)o5)cc4F)nn3)c2)C[C@H](C)N1C [Compound 4443, 2-(difluoromethyl)-5-(3-fluoro-4-((4-(3-((3R,5S)-3,4,5-trimethylpiperazin-1-yl)phenyl)-1H-1,2,3-triazol-1-yl)methyl)phenyl)-1,3,4-oxadiazole]
			> 50000	1466	34.1		CN(C)C1CCN(Cc2ccc(-c3cn(Cc4ccc(-c5nnc(C(F)F)o5)cc4F)nn3)cc2)CC1 [Compound 4494, 1-(4-(1-(4-(5-(difluoromethyl)-1,3,4-oxadiazol-2-yl)-2-fluorobenzyl)-1H-1,2,3-triazol-4-yl)benzyl)-N,N-dimethylpiperidin-4-amine]
